Results as given in paper PMC5412285, “Characterization of Active Anthocyanin Degradation in the Petals of Rosa chinensis and Brunfelsia calycina Reveals the Effect of Gallated Catechins on Pigment Maintenance” (International Journal of Molecular Sciences, 2017).

Molecular target: T1, Brunfelsia calycina POD (purified 40-kDa anthocyanin degradation-related peroxidase; BcPrx01 suggested)
T1 construct: native POD purified from petals, close to 40 kDa
Assay: guaiacol/H2O2 peroxidase activity assay with purified POD, absorbance at […] nm
Format: biochemical, Brunfelsia pauciflora var. calycina (Brunfelsia calycina)

Compound: O=C(O[C@@H]1Cc2c(O)cc(O)cc2O[C@@H]1c1ccc(O)c(O)c1)c1cc(O)c(O)c(O)c1 [ECG, epicatechin-3-gallate]
- IC50: 21.5 µM

Compound: O=C(O[C@@H]1Cc2c(O)cc(O)cc2O[C@H]1c1cc(O)c(O)c(O)c1)c1cc(O)c(O)c(O)c1 [GCG, gallocatechin-3-gallate]
- IC50: 29.7 µM
